One data set concerns glial cells. Put plainly: Toxicity of transduced peptides to glial cells in primary hippocampal cultures (GFAP immunostaining, quantitative image analysis). It is filed as cell-based, rat. The note with it: rat, astrocytes (glial cells in primary hippocampal cultures). As to the method: (§1) Hippocampal or cortical neurons derived from 17-day old rat embryos were plated in modified minimum essential media (MEM-PAK) supplemented with 5% horse serum. Three days later, the cultures were treated with 10 μM cytosine arabinoside (AraC). Twenty-four h later the cells were treated with the peptide conjugates and incubated for an additional 24 or 48 h. Cells were incubated in the presence of 50 μM of the general caspase inhibitor BOC-Asp(Ome)-FMK (BAF) for 30 min prior to addition of peptides or with an equivalent volume of dimethylsulfoxide (DMSO) and then maintained in the presence of the same concentration of the inhibitor for the duration of the experiment. In all experiments involving Aβ, a 1 mM Aβ42 stock solution was used that had been incubated at 37° C. for 48 h and then stored at 4° C. to allow for the formation of Aβ fibrils. Aβ42 was purchased from AnaSpec (San Jose, Calif.).
(§2) Peptides were synthesized and purified at the Stanford University Protein and Nucleic Acid (PAN) Facility. All peptide stocks were solubilized in water at 1 or 10 mM concentration. […]
Hippocampal cultures were fixed in 4% paraformaldehyde in 1× phosphate-buffered saline (PBS) for 20 min at room temperature (RT). […] Images were acquired using Nikon Eclipse-800 microscope and Optronics MagnaFire camera and software, and analyzed using Compix Simple PCI software. The total surface area corresponding to red and green fluorescence in each confocal image was determined by image analysis using Simple PCI software (Compix, Inc., Philadelphia).
To investigate whether this was due to a greater sensitivity of neurons than glial cells to DP-APPC31-induced death, 3-day-old rat hippocampal cultures were exposed to increasing concentrations of DP-APPC31 or control DP peptide and fixed 48 h after transduction. […] A quantitative assessment of the total area of red and green fluorescence present in low-magnification confocal images of representative fields obtained from three independent experiments was performed using a digital image analysis system (SimplePCl, Compix, Inc, Philadelphia). […]

For data set [1], the system named is primary hippocampal cultures. Put plainly: Viability of primary hippocampal cultures by trypan blue exclusion. The note with it: preincubation with 5 μM Aβ for 24 h, then transduction in absence of Aβ; read-out: LC50 in primary cultures pre-exposed to sublethal fibrillar Aβ. The class given is cell-based, rat. As to the method: as §1, §2
Aβ exacerbates the sensitivity of hippocampal cultures to C31 toxicity. […] Thirty-six hours later, the cultures were evaluated by the LIVE/DEAD assay. […] Cells were stained with Hoechst 33342 and scored for nuclear condensation.

Another data set deals with N2a neuroblastoma cells. Put plainly: Annexin V-FITC staining of transfected N2a cells. It is filed as cell-based, mouse. To be noted: expression by transfection. As to the method: Mouse N2a neuroblastoma cells were grown at 37° C. and 5% CO2 in […] Dulbecco's modified Eagle's medium and 45% OptiMEM I (Life Technologies) supplemented with 10% fetal bovine serum and 2 mM glutamine. Plasmid constructs were introduced into the N2a cells with the LipofectAMINE plus transfection reagent (Life Technologies) according to the manufacturer's instructions.
N2a cells were plated on glass cover slips treated with polylysine and were transfected as described above. At 24 h after transfection, cells were directly stained with annexin V-FITC for apoptosis in tissue culture media, according to the manufacturer's instructions (annexin V-FITC Apoptosis Detection Kit; Calbiochem, La Jolla, Calif.). After being stained with annexin V-FITC, cells were fixed for 20 min in 4% parafoimaldehyde in phosphate-buffered saline and permeabilized in 0.5% Triton X-100 in phosphate-buffered saline for 5 min. After being blocked in 5% BSA in phosphate-buffered saline, the cells were incubated for 1 h at room temperature with CT15, diluted 1:2,000. In parallel, cells were stained with propidium iodide after annexin V staining and paraformaldehyde fixation but without permeabilization to verify membrane integrity; the combination of amnexin V staining and membrane integrity indicated apoptosis without secondary necrosis. The primary antibody was detected with Texas Red®-conjugated secondary antibody against rabbit (Molecular Probes, Eugene, Oreg.). Negative controls, which included preimmune serum and cells transfected with pcDNA3 (mock transfection), were assayed in parallel using the protocol described above. The cells were analyzed by confocal nmcroscopy using a BioRad MRC-1024 system. Cells in five random fields were counted for each slide, in duplicate for each condition. The number of cells positive and negative for APP or C31 and apoptosis (annexin V-FITC) were determined, and relative risk was calculated (RR=p1/p2)=concordant staining [(+/+) times (−/−)] divided by discordant staining [(+/−) times (−/+)].
Double-labeling of APP and annexin V in N2a cells after transfection was performed. N2a cells were transfected with either APP or C31 followed by staining with annexin V-FITC to visualize apoptotic cells. Transfected cells were immunolocalized with CT15 followed by Texas Red conjugated secondary antibody to visualize APP or C31 expression. When expressed in N2a cells, C31 but not APP is associated with apoptosis. A high proportion of C31 transfected cells are positive for amnexin V-FITC (green outline of the cell; RR=6.3), whereas in APP-expressing cells, annexin V-FITC staining is sparse (RR=0.77). In control cells transfected with pcDNA3 (mock transfection; control), there is no staining with annexin V-FITC and essentially no staining of endogenous APP at this antibody dilution. Images are representations of four different fields of view of each of three separate experiments.

The test system of data set [2] is 293T human embryonic kidney cells. Put plainly: Toxicity of C31 peptide to 293T cells. The class given is cell-based. As to the method:
(§3) Peptides were synthesized and purified at the Stanford University Protein and Nucleic Acid (PAN) Facility. All peptide stocks were solubilized in water at 1 or 10 mM concentration. […] A control peptide used was a fusion of the human immunodeficiency virus-1 TAT protein (HIV-TAT) delivery peptide sequence (Hileman et al., FEBS Lett. 415:145-154 (1997) and the first helix of the p75 receptor intracellular domain.
Primary hippocampal or cortical neuronal culturesor 293 cells transduced with the different penetratin-peptide conjugates were assayed for viability at 24 and 48 h after transduction by trypan blue exclusion or by conversion of 3-[4,5-Dimethylthiazol-2-yl]-2,5-diphenyltetrazolium bromide; Thiazolyl blue (MTT, Sigma, St. Louis) to formazan by dehydrogenase enzymes (MTT, Sigma, St. Louis) and by the LIVE/DEAD assay (Molecular Probes, Eugene, Oreg.), which distinguishes live cells by the presence of intracellular esterase activity, which results in the conversion of the non-fluorescent cell permeant calcein-AM to the intensely green fluorescent calcein. Calcein is retained witlin live cells. Ethidium homodimer-1 (EthD-1) enters cells with damaged membranes and becomes intensely fluorescent when bonding to nucleic acids. EthD-1 is excluded by the intact plasma membrane of live cells. Media were removed and replaced by 4 μM EthD-1 and 2 μM calcein in PBS. […]

Another data set relates to PTB domain of Fe65. Put plainly: Binding of C31 to the PTB domain of Fe65. The text has this: Binding assays can be used to confirm this observation with respect to the C31 peptide derived from APLP1.
A further data set has as its system hippocampal neurons. The data set is described as follows: Toxicity of transduced peptides to neurons in primary hippocampal cultures (NeuN immunostaining, quantitative image analysis). It is filed as cell-based. The note with it: primary culture; read-out: LC50 for hippocampal neurons. As to the method:
as §1, §3
Hippocampal cultures were fixed in 4% paraformaldehyde in 1× phosphate-buffered saline (PBS) for 20 min at room temperature (RT). Cells were then rinsed in 1× PBS and then washed once in 1× Tris-buffered saline (TBS) followed by blocking in 10% donkey serum (Jackson ImmunoResearch Labs, West Grove, Pa.) with 0.1% Triton X-100 in 1×TBS for 1 h at RT. Cultures were incubated overnight in the presence of rabbit anti-GFAP (Sigma, St. Louis) at 1:800 dilution and mouse anti-NeuN (Chemicon, Temecula, Calif.) at 1:100 at 4° C. Negative controls were incubated in 2 mg/ml rabbit and mouse preinimune IgGs (Sigma, St. Louis). All primary antibodies were diluted in 1×TBS containing 10% donkey serum. Cultures were washed for 90 min in 4 changes of 1×TBS and incubated in the presence of donkey anti-rabbit IgG conjugated to Cy3 and donkey anti-mouse IgG conjugated to FITC (Jackson ImmunoResearch Laboratories, Inc., West Grove, Pa.), at 1:250 and 1:400, respectively, in 1×TBS containing 1% donkey serum for 1 h at RT. Cells were washed for 90 min in 4 changes of 1×TBS and mounted in VectaShield-DAPI mounting medium (Vector Laboratories, Burlingame, Calif.). Images were acquired using Nikon Eclipse-800 microscope and Optronics MagnaFire camera and software, and analyzed using Compix Simple PCI software. The total surface area corresponding to red and green fluorescence in each confocal image was determined by image analysis using Simple PCI software (Compix, Inc., Philadelphia).
To investigate whether this was due to a greater sensitivity of neurons than glial cells to DP-APPC31-induced death, 3-day-old rat hippocampal cultures were exposed to increasing concentrations of DP-APPC31 or control DP peptide and fixed 48 h after transduction. The fixed cultures were then immunostained with antibodies specific for GFAP (red) and NeuN (green). A quantitative assessment of the total area of red and green fluorescence present in low-magnification confocal images of representative fields obtained from three independent experiments was performed using a digital image analysis system (SimplePCl, Compix, Inc, Philadelphia).
APLP1C31 induces death in primary hippocampal cultures. […] If this event occurs in vivo, APLP1 would have the potential to generate a pro-apoptotic C-terminal peptide homologous to APPC31. To deterinine whether the peptide generated by caspase cleavage of APLP1 is toxic, a fusion of APLP1C31 to the Antennapedia delivery peptide (DP-APLP1C31) was generated and assayed in protein transduction experiments. […]

No end group written: not given here.

For the sequence AAVTPEERHLSKMQQNGYENPTYKFFEQMQN [C31], the CC50 in the data set on glial cells was 10 to 25 µM; in data set [1], less than 500 nM; in data set [2] it was 50 to 100 µM; in the data set on hippocampal neurons, 1000 to 2000 nM. Also, the “relative risk (RR) of annexin V-FITC staining with expression” value in the data set on N2a neuroblastoma cells is on record as 6.3. The “annexin V-positive among construct-positive cells” value with N2a neuroblastoma cells (no tamoxifen or staurosporine, 24 h) came out at 76±10%. Moreover, the “binding to the PTB domain of Fe65” value in the data set with PTB domain of Fe65 is given as “binds to the PTB domain of Fe65”.
